Consider 1 molecule from BindingDB's records for PubMed 9223586 (Georgetown University, 1997).

The target of this test is Nicotinic acetylcholine receptor (Rattus leucopus, UniProt Q62594).
Sequence of Nicotinic acetylcholine receptor (Q62594 whole entry): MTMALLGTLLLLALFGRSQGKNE

Turning to `COc1cc2c3cc1Oc1cc(ccc1O)CC1c4c(cc(OC)c(O)c4Oc4ccc(cc4)CC3[N+](C)(C)CC2)CC[N+]1(C)C` (stereo unspecified) [CAS_8063-06-7], affinity was put at a Ki of 3.79 µM.
